In patent publication US7462345B2, “Radionuclide labeling of vitamin B12 and coenzymes thereof” (Mayo Foundation for Medical Education and Research, priority 1995, dated 2008):

What was measured:
[1] = pH of 1000 μg/10 ml normal saline solutions; assay type: physicochemical; settings: 1000 μg in 10 ml normal saline, no buffers, room temperature
Procedure: Under dim light, 1000 μg of the non-labeled methyl-, adenosyl-, and cyanocobalamin-b-(4-aminobutyl)amide-DTPA, as well as 1000 μg of cyanocobalamin and DTPA (Sigma, St. Louis, Mo. 63178), were separately dissolved in 10 ml of normal saline at room temperature. Each of the five 1000 μg/10 ml samples were stored in sealed, aluminum-Tapped 10 ml vials to prevent exposure to light. No buffers were added to the solutions. The pH of the solutions, measured by a Beckman 40 pH meter (Beckman Instruments, Fullerton, Calif.): Cyanocobalamin=5.75, DTPA=3.78; cyano, methyl and adenosylcobalamin-DTPA analogues were 5.75, 6.10, and 6.19, respectively.

Intrinsic Factor (IF) = experiment: modified intrinsic factor blocking antibody (IFBA) assay; assay type: binding; settings: for averaged percent binding to IF: average of five patients, estimated from counts vs Clinical run
Procedure: (§1) Under dim light, 1000 μg of the non-labeled methyl-, adenosyl-, and cyanocobalamin-b-(4-aminobutyl)amide-DTPA, as well as 1000 μg of cyanocobalamin and DTPA (Sigma, St. Louis, Mo. 63178), were separately dissolved in 10 ml of normal saline at room temperature. Each of the five 1000 μg/10 ml samples were stored in sealed, aluminum-Tapped 10 ml vials to prevent exposure to light. No buffers were added to the solutions. The pH of the solutions, measured by a Beckman 40 pH meter (Beckman Instruments, Fullerton, Calif.): Cyanocobalamin=5.75, DTPA=3.78; cyano, methyl and adenosylcobalamin-DTPA analogues were 5.75, 6.10, and 6.19, respectively. To assess in vitro binding to Intrinsic Factor (IF) and Transcobalamins (TC), the intrinsic factor blocking antibody (IFBA) and Unsaturated vitamin B12 Binding Capacity (UBBC) assays were performed with serum randomly obtained from five patients being evaluated for pernicious anemia at the Mayo Clinic. The IFBA and UBBC assays were first performed for clinical purposes as previously described by V. F. Fairbanks et al., Mayo Clin. Proc., 58, 203 (1983); Intrinsic Factor Blocking Antibody [^57Co] Radioassay-Package insert, Diagnostic Products Corp.; D. Grossowicz et al., Proc. Exp. Biol. 109, 604 (1962) and C. Gottlieb et al., Blood 25, 6 (1965). Next, the serum from the same five patients underwent modified IFBA and UBBC assays. Specifically, 1 μl of the five previously described solutions were separately incubated with purified IF or serum, to potentially saturate all IF and TC binding sites. After incubation for 20 minutes at room temperature and for another 20 minutes at 4° C., 500 μl of the stock (1000 μg/l) Cobalt-57-cyanocobalamin (Mallinckrodt Medical. Inc., St. Louis, Mo. 63134) solution was added and the usual IFBA and UBBC protocols were then followed. All supernatant activity was counted for four minutes on a gamma counter (Micromedix 10/20, Huntsville, Ala. 35805).

Transcobalamins (TC) = experiment: modified Unsaturated vitamin B12 Binding Capacity (UBBC) assay; parameters: species or system human; settings: for averaged percent binding to the transcobalamin proteins: average of five patients; for UBBC supernatant counts: NSB = counts <100
Procedure: as §1

[2] = PT 1, negative <1.11, positive (binding to IF) >1.43, indeterminate 1.11-1.43
[3] = PT 2, negative <1.11, positive >1.43
[4] = PT 3, negative <1.11, positive >1.43
[5] = PT 4, negative <1.11, positive >1.43
[6] = PT 5, negative <1.11, positive >1.43
[7] = serum PT 1, preincubated with 1 μl of 1000 μg/10 ml solution, then Co-57-cyanocobalamin, Clinical Run 741

Compound	pH of the solution [1]	IFBA supernatant counts (Intrinsic Factor (IF); PT 1, Clinical Run 11942.5)	IFBA value (in parentheses) (Intrinsic Factor (IF); [2])	IFBA supernatant counts (Intrinsic Factor (IF); PT 2, Clinical Run 11656)	IFBA value (in parentheses) (Intrinsic Factor (IF); [3])	IFBA supernatant counts (Intrinsic Factor (IF); PT 3, Clinical Run 11780)	IFBA value (in parentheses) (Intrinsic Factor (IF); [4])	IFBA supernatant counts (Intrinsic Factor (IF); PT 4, Clinical Run 11617)	IFBA value (in parentheses) (Intrinsic Factor (IF); [5])	IFBA supernatant counts (Intrinsic Factor (IF); PT 5, Clinical Run 11653.5)	IFBA value (in parentheses) (Intrinsic Factor (IF); [6])	averaged percent binding to IF (Intrinsic Factor (IF))	averaged percent binding to the transcobalamin proteins (Transcobalamins (TC))	UBBC supernatant counts (Transcobalamins (TC); [7])	UBBC supernatant counts (Transcobalamins (TC); serum PT 2, Clinical Run 632)	UBBC supernatant counts (Transcobalamins (TC); serum PT 3, Clinical Run 2097)	UBBC supernatant counts (Transcobalamins (TC); serum PT 4, Clinical Run 1378)	UBBC supernatant counts (Transcobalamins (TC); serum PT 5, Clinical Run 1682)
CC1=C2N=C(C=C3N=C(C(C)=C4[N-]C(C(CC(N)=O)C4(C)CCC(=O)NCC(C)OP(=O)([O-])OC4C(CO)OC(n5cnc6cc(C)c(C)cc65)C4O)C4(C)N=C1C(CCC(=O)NCCCCNC(=O)CN(CCN(CCN(CC(=O)O)CC(=O)O)CC(=O)O)CC(=O)O)C4(C)CC(N)=O)C(CCC(N)=O)C3(C)C)C(CCC(N)=O)C2(C)CC(N)=O.[CH2-]C1OC(n2cnc3c(N)ncnc32)C(O)C1O.[Co+3] (stereo not drawn) [ADB12DTPA, adenosylcobalamin-b-(4-aminobutyl)-amide-DTPA]	6.19	6758.5 counts	(2.30)	6841.5 counts	(1.74)	6828.5 counts	(1.74)	7046.5 counts	(1.64)	7096.5 counts	(1.72)	41.0%	90.4%	54.6 counts	62.6 counts	590.3 counts	126.9 counts	163.9 counts
CC1=C2N=C(C=C3N=C(C(C)=C4[N-]C(C(CC(N)=O)C4(C)CCC(=O)NCC(C)OP(=O)([O-])OC4C(CO)OC(n5cnc6cc(C)c(C)cc65)C4O)C4(C)N=C1C(CCC(=O)NCCCCNC(=O)CN(CCN(CCN(CC(=O)O)CC(=O)O)CC(=O)O)CC(=O)O)C4(C)CC(N)=O)C(CCC(N)=O)C3(C)C)C(CCC(N)=O)C2(C)CC(N)=O.[C-]#N.[Co+3] (stereo not drawn) [CNB12DTPA, cyanocobalamin-b-(4-aminobutyl)-amide-DTPA]	5.75	5151 counts	(2.30)	5133.5 counts	(2.31)	5338.5 counts	(2.22)	6002.5 counts	(1.98)	5973.5 counts	(1.99)	52.9%	66.4%	222.6 counts	216.9 counts	713.3 counts	433.2 counts	643.2 counts
CC1=C2N=C(C=C3N=C(C(C)=C4[N-]C(C(CC(N)=O)C4(C)CCC(=O)NCC(C)OP(=O)([O-])OC4C(CO)OC(n5cnc6cc(C)c(C)cc65)C4O)C4(C)N=C1C(CCC(=O)NCCCCNC(=O)CN(CCN(CCN(CC(=O)O)CC(=O)O)CC(=O)O)CC(=O)O)C4(C)CC(N)=O)C(CCC(N)=O)C3(C)C)C(CCC(N)=O)C2(C)CC(N)=O.[CH3-].[Co+3] (stereo not drawn) [MEB12DTPA, methylcobalamin-b-(4-aminobutyl)-amide-DTPA]	6.10	4279 counts	(2.77)	4082 counts	(2.92)	4456.5 counts	(2.66)	4414 counts	(2.69)	4381.5 counts	(2.77)	63.2%	94.0%	17.1 counts	26.8 counts	278.9 counts	60.9 counts	91.1 counts
